Target: T1, Thioredoxin domain-containing protein 12 (TXNDC12) (Homo sapiens, UniProt O95881)
T1 construct: endogenous in cells; host or cells: MCF7
Test: In situ competitive profiling in live MCF7 cells (LFQ): TXNDC12
Type: cell-based
Details: 4 h, then 10 µM 24c, n=4
Source text: In our efforts to determine the direct molecular targets of deoxyelephantopin we first performed a gel-based competitive in situ proteomic profiling assay[41] […] While the greater conformational flexibility of probe 24c could potentially lead to more promiscuous target engagement relatively to deoxyelephantopin, it was favoured based on the fact that an alkyne moiety appended to the rigid scaffold of deoxyelephantopin may hinder some of its interactions. MCF7 cells were pretreated with various concentrations of deoxyelephantopin for 4 h, harvested, lysed and the lysates were treated with the fluorogenic probe 24c-Cy3 (10 μM; Supplementary Fig. 10). […] Furthermore, cells were pretreated with 20 μM concentration of deoxyelephantopin or 24c and the proteomic profiles were compared (Fig. 6b, Supplementary Fig. 11). Multiple bands were detected that were equally competed by both DEP and 24c, thus again confirming that 24c can be used as an acceptable clickable analogue of deoxyelephantopin in pulldown assays. Having established the optimal labelling conditions by SDS–PAGE, we next carried out a mass spectrometry-based competitive profiling assay[42] coupled with the method of stable isotope labelling of amino acids in culture (SILAC)[43]. […]
Figure 6 Proteome-wide identification of deoxyelephantopin targets. […] Quantification was performed using label-free quantification (LFQ) method (n=4). […]

T1 sequence (O95881 27-172): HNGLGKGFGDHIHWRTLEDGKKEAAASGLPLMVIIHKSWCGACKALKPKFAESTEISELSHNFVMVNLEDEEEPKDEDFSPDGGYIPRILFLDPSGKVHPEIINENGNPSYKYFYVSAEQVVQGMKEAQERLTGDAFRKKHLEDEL

`C=C(C)C(=O)O[C@H]1CC2=C[C@@H](C/C(C)=C/[C@H]3OC(=O)C(=C)[C@H]13)OC2=O` [deoxyelephantopin] was tested, and the “LFQ ratio 20 µM Deoxyelephantopin/DMSO with 24c” value was 0.0425.

Source: publication PMC4992173, “Divergent synthesis and identification of the cellular targets of deoxyelephantopins” (Nature Communications, 2016)
